From article PMC11111691, “Cystine-knot peptide inhibitors of HTRA1 bind to a cryptic pocket within the active site region” (Nature Communications, 2024)
Positions of bridges follow the written chain, without caps; N, C: chain ends. Residues, ends and D or L forms follow the SMILES beside them.

Assays:
HTRA1^PD(SA) = target: T1, HTRA1^PD(SA) (Homo sapiens, UniProt Q92743, S328A); test: SPR binding kinetics to HTRA1^PD(SA); settings: mean ± S.D. of three or more independent experiments; for koff / kon: SPR Biacore S200, 25 °C, single cycle kinetics, 1:1 Langmuir model; for Kd: SPR, calculated from kon and koff, CPI up to 10 µM
T1 construct: The protease domains of human HTRA1 (HTRA1^PD; D161-K379); made in house; host or cells: E. coli
T1 sequence (Q92743 161-379 S328A): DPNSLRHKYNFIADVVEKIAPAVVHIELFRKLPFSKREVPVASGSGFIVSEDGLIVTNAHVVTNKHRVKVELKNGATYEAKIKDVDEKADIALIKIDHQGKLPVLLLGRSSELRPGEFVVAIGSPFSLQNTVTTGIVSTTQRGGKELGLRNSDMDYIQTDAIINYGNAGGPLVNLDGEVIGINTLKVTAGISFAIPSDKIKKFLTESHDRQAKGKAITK
Description: Surface plasmon resonance (SPR) experiments were performed using a Biacore S200 instrument at 25 °C. His-tagged HTRA proteins were captured on a CM5 sensor chip using the His-capture kit (GE Healthcare). Protein concentrations used for immobilization were as follows; HTRA1^PD(SA), HTRA1^PD and HTRA1^PD-ABP 2 µg/ml with 60-s injections at 10 µl/min, HTRA2^PD/PDZ, HTRA3^PD/PDZ, and HTRA4^PD/PDZ 4 µg/ml with 60-s injections at 10 µl/min. Approximate immobilization levels of HTRA proteins were as follows; HTRA1^PD(SA) 700 RU, HTRA1^PD 900 RU, HTRA1^PD-ABP 900 RU, HTRA2^PD/PDZ 500 RU, HTRA3^PD/PDZ 500 RU, HTRA4^PD/PDZ 500 RU. All CKPs were prepared in HBS-EP buffer (0.01 M HEPES pH 7.4, 0.15 M NaCl, 3 mM EDTA, 0.005% v/v Surfactant P20). All CKP concentrations were injected for 120 s at a flow rate of 30 μl/min. A reference channel was subtracted from the HTRA-captured channel.
Binding kinetics of peptides to HTRA1^PD(SA) were determined by flowing six serial three-fold dilutions of peptide over the HTRA1^PD(SA) immobilized surface using a single cycle kinetics model. CKP maximum concentrations were as follows: 1A7, 1A8, 1C10, 2D5, and 3A7, 300 nM; 1G10-ENI and 1D3-ENI, 100 nM; 3B3, 3000 nM; and CPI, 10,000 nM. Data were analyzed using GE BIA evaluation software using a 1:1 Langmuir binding model. The KD values, calculated from the determined kon and koff values, were the mean ± S.D. of 3–4 independent experiments.

HTRA1^FL = target: T2, HTRA1^FL (Homo sapiens, UniProt Q92743); test: HTRA1^FL enzyme inhibition assay with synthetic substrate H2-OPT; format: biochemical
T2 construct: Human full-length HTRA1 (HTRA1^FL, Q23-P480); made in house; host or cells: Trichoplusia ni cells
T2 sequence (Q92743 23-480): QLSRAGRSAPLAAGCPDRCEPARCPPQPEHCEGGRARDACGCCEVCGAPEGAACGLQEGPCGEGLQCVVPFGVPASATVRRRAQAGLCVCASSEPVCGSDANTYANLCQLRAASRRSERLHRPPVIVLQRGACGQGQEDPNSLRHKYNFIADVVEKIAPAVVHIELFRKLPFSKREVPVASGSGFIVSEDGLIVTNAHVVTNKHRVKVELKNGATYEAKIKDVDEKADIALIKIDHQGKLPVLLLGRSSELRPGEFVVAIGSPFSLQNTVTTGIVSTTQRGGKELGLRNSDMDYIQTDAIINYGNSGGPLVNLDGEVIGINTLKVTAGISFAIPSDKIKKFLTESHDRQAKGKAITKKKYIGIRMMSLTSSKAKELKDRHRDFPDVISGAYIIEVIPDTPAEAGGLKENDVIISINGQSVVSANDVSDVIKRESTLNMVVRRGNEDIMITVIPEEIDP
Description: Assays with the fluorescence-quenched synthetic substrate Mca-IRRVSYSFK(Dnp)K (H2-OPT)[38],[60] were carried out essentially as described. CKP stock solutions in DMSO were diluted in TNC buffer (dilution series for IC50 determinations, or final concentration of 2 µM for selectivity assay or as indicated for HTRA1/4 mutants) and incubated with enzymes in 96-well black optical bottom plates for 60 min at 37 °C. For selectivity experiments we used the 7mer-ABP as inhibitor, which was incubated with the proteases for 15 min at 37 °C. A 10 mM stock solution of H2-OPT in DMSO was diluted with water, prewarmed at 37 °C and then added to the CKP-enzyme mixtures. The final concentrations in the reaction mixtures were: 1 nM HTRA1^FL, 3 nM HTRA1^PD/PDZ, 1 nM HTRA1^PD, 1 nM HTRA2^PD/PDZ, 3 nM HTRA3^FL, 60 nM HTRA3^PD/PDZ, 6 nM HTRA4^FL, 1 µM HTRA4^PD/PDZ, 1 nM mouse HTRA1^PD, 25 nM HTRA1^PD-A202Y, 1 µM HTRA4^PD/PDZ-Y200A, 0.5 mM 7mer-ABP, 5 µM H2-OPT, and 0.25% DMSO. The kinetics of substrate cleavage was measured at 37 °C on a SpectraMax M5 microplate reader with excitation of 328 nm and emission of 393 nm. The determined initial rates of cleavage were expressed as percent of control (DMSO control) after subtracting the baseline rates (without enzyme). IC50 values were determined by Sigmoidal 4PL modeling of multiple data points from serial dilutions of CKPs using Prism 9 software (GraphPad). For selectivity assays with HTRA1-4^PD/PDZ constructs, the specific activities of the enzymes and enzyme:CKP inhibitor ratios were as follows: HTRA1^PD/PDZ, 12560 mRFU/min/nM – 1:667; HTRA2^PD/PDZ, 32300 mRFU/min/nM – 1:2000; HTRA3^PD/PDZ, 962 mRFU/min/nM – 1:33; HTRA4^PD/PDZ, 18 mRFU/min/nM – 1:2.

For CC[C@H](C)[C@H](NC(=O)[C@@H]1CCCN1C(=O)[C@H](CC(=O)O)NC(=O)[C@H](C)NC(=O)[C@@H](N)Cc1c[nH]cn1)C(=O)N[C@H]1CSSC[C@@H]2NC(=O)[C@H](Cc3ccccc3)NC(=O)[C@H](Cc3c[nH]c4ccccc34)NC(=O)[C@H](C)NC(=O)CNC(=O)[C@H](CO)NC(=O)[C@@H]3CSSC[C@@H](C(=O)NCC(=O)N4CCC[C@H]4C(=O)NCC(=O)N[C@@H](Cc4c[nH]c5ccccc45)C(=O)N[C@@H](CCCNC(=N)N)C(N)=O)NC(=O)[C@H](CO)NC(=O)[C@H](Cc4c[nH]c5ccccc45)NC(=O)[C@H]([C@@H](C)O)NC(=O)[C@H](C)NC(=O)[C@H](Cc4ccc(O)cc4)NC(=O)[C@H](Cc4ccc(O)cc4)NC(=O)[C@H](CSSC[C@H](NC(=O)[C@@H]4CCCN4C(=O)[C@H](CCCCN)NC(=O)[C@H](CC(N)=O)NC1=O)C(=O)N[C@@H](CCCCN)C(=O)N[C@@H]([C@@H](C)O)C(=O)N[C@@H](Cc1c[nH]cn1)C(=O)N[C@@H](CC(=O)O)C(=O)N[C@@H](CC(=O)O)C(=O)N3)NC(=O)[C@H](C)NC(=O)[C@H](CCC(N)=O)NC2=O [1A7] (H-HADPICNKPCKTHDDCSGAWFCQACYYATWSCGPGWR-NH2; disulfide 6-22, 10-25, 16-32), the koff (HTRA1^PD(SA)) was 6.5 ± 0.7 s-1 x10-4, the kon (HTRA1^PD(SA)) was 9.4 ± 1.3 M-1 s-1 x104 and the Kd (HTRA1^PD(SA)) was 7 ± 0.5 nM.
With CC[C@H](C)[C@H](NC(=O)[C@H](CCC(N)=O)NC(=O)[C@H](CCCNC(=N)N)NC(=O)[C@H](CC(C)C)NC(=O)CNC(=O)[C@H](Cc1c[nH]c2ccccc12)NC(=O)CNC(=O)[C@@H]1CSSC[C@@H]2NC(=O)[C@H](CC(=O)O)NC(=O)[C@H](CC(=O)O)NC(=O)[C@H](Cc3c[nH]cn3)NC(=O)[C@H]([C@@H](C)O)NC(=O)[C@H](CC(=O)O)NC(=O)[C@@H]3CSSC[C@H](NC(=O)[C@H]([C@@H](C)O)NC(=O)[C@H](CCC(N)=O)NC(=O)[C@H](CSSC[C@H](NC(=O)[C@@H](NC(=O)[C@@H]4CCCN4C(=O)[C@H](CC(=O)O)NC(=O)[C@H](C)NC(=O)[C@@H](N)Cc4c[nH]cn4)[C@@H](C)CC)C(=O)N[C@@H](CC(N)=O)C(=O)N[C@@H](CCCCN)C(=O)N4CCC[C@H]4C(=O)N3)NC(=O)[C@H](Cc3ccccc3)NC(=O)[C@H](Cc3c[nH]c4ccccc34)NC(=O)[C@H](C)NC(=O)CNC(=O)[C@H](CO)NC2=O)C(=O)N[C@@H](Cc2ccc(O)cc2)C(=O)N[C@@H](Cc2ccc(O)cc2)C(=O)N[C@@H](C)C(=O)N[C@@H]([C@@H](C)O)C(=O)N[C@@H](Cc2c[nH]c3ccccc23)C(=O)N[C@@H](CO)C(=O)N1)C(=O)N[C@@H](CC(=O)O)C(N)=O [1A8.K11D] (H-HADPICNKPCDTHDDCSGAWFCQTCYYATWSCGWGLRQID-NH2; disulfide 6-22, 10-25, 16-32) the IC50 (HTRA1^FL) was 1.2 ± 0.4 nM.
For CC[C@H](C)[C@H](NC(=O)[C@@H]1CCCN1C(=O)[C@H](CC(=O)O)NC(=O)[C@H](C)NC(=O)[C@@H](N)Cc1c[nH]cn1)C(=O)N[C@H]1CSSC[C@@H]2NC(=O)[C@H](Cc3ccccc3)NC(=O)[C@H](Cc3c[nH]c4ccccc34)NC(=O)[C@H](C)NC(=O)CNC(=O)[C@H](CO)NC(=O)[C@@H]3CSSC[C@@H](C(=O)NCC(=O)N4CCC[C@H]4C(=O)NCC(=O)N[C@@H](CCCNC(=N)N)C(=O)N[C@@H](Cc4ccc(O)cc4)C(N)=O)NC(=O)[C@H](CO)NC(=O)[C@H](Cc4c[nH]c5ccccc45)NC(=O)[C@H]([C@@H](C)O)NC(=O)[C@H](C)NC(=O)[C@H](Cc4ccc(O)cc4)NC(=O)[C@H](Cc4ccc(O)cc4)NC(=O)[C@H](CSSC[C@H](NC(=O)[C@@H]4CCCN4C(=O)[C@H](CCCCN)NC(=O)[C@H](CC(N)=O)NC1=O)C(=O)N[C@@H](CCCCN)C(=O)N[C@@H]([C@@H](C)O)C(=O)N[C@@H](Cc1c[nH]cn1)C(=O)N[C@@H](CC(=O)O)C(=O)N[C@@H](CC(=O)O)C(=O)N3)NC(=O)[C@H](C)NC(=O)[C@H](CCC(N)=O)NC2=O [1C10] (H-HADPICNKPCKTHDDCSGAWFCQACYYATWSCGPGRY-NH2; disulfide 6-22, 10-25, 16-32), the koff (HTRA1^PD(SA)) was 4.7 ± 0.1 s-1 x10-4, the kon (HTRA1^PD(SA)) was 7.7 ± 2.4 M-1 s-1 x104 and the Kd (HTRA1^PD(SA)) was 6.5 ± 2.2 nM.
CC[C@H](C)[C@H](NC(=O)[C@@H]1CCCN1C(=O)[C@H](CC(=O)O)NC(=O)[C@H](C)NC(=O)[C@@H](N)Cc1c[nH]cn1)C(=O)N[C@H]1CSSC[C@@H]2NC(=O)[C@H](Cc3ccccc3)NC(=O)[C@H](Cc3c[nH]c4ccccc34)NC(=O)[C@H](C)NC(=O)CNC(=O)[C@H](CO)NC(=O)[C@@H]3CSSC[C@@H](C(=O)N[C@@H](CCC(N)=O)C(=O)N[C@@H](Cc4c[nH]c5ccccc45)C(=O)N4CCC[C@H]4C(=O)N4CCC[C@H]4C(=O)N[C@@H](CCCNC(=N)N)C(=O)N[C@@H](Cc4c[nH]cn4)C(=O)N[C@@H](CCCNC(=N)N)C(=O)N[C@@H](CC(=O)O)C(N)=O)NC(=O)[C@H](CO)NC(=O)[C@H](Cc4c[nH]c5ccccc45)NC(=O)[C@H]([C@@H](C)O)NC(=O)[C@H](C)NC(=O)[C@H](Cc4ccc(O)cc4)NC(=O)[C@H](Cc4ccc(O)cc4)NC(=O)[C@H](CSSC[C@H](NC(=O)[C@@H]4CCCN4C(=O)[C@H](CCCCN)NC(=O)[C@H](CC(N)=O)NC1=O)C(=O)N[C@@H](CCCCN)C(=O)N[C@@H]([C@@H](C)O)C(=O)N[C@@H](Cc1c[nH]cn1)C(=O)N[C@@H](CC(=O)O)C(=O)N[C@@H](CC(=O)O)C(=O)N3)NC(=O)[C@H]([C@@H](C)O)NC(=O)[C@H](CCC(N)=O)NC2=O [2D5] (H-HADPICNKPCKTHDDCSGAWFCQTCYYATWSCQWPPRHRD-NH2; disulfide 6-22, 10-25, 16-32) was tested, and the koff (HTRA1^PD(SA)) was 1.0 ± 0.1 s-1 x10-4, the kon (HTRA1^PD(SA)) was 10.5 ± 0.9 M-1 s-1 x104 and the Kd (HTRA1^PD(SA)) was 0.94 ± 0.12 nM.
With CC[C@H](C)[C@H](NC(=O)[C@@H]1CCCN1C(=O)[C@H](CC(=O)O)NC(=O)[C@H](C)NC(=O)[C@@H](N)Cc1c[nH]cn1)C(=O)N[C@H]1CSSC[C@@H]2NC(=O)[C@H](Cc3ccccc3)NC(=O)[C@H](Cc3c[nH]c4ccccc34)NC(=O)[C@H](C)NC(=O)CNC(=O)[C@H](CO)NC(=O)[C@@H]3CSSC[C@@H](C(=O)NCC(=O)N4CCC[C@H]4C(=O)N[C@@H](Cc4ccc(O)cc4)C(=O)N[C@H](C(=O)NCC(N)=O)C(C)C)NC(=O)[C@H](CCCNC(=N)N)NC(=O)[C@H](Cc4c[nH]c5ccccc45)NC(=O)[C@H](CC(N)=O)NC(=O)[C@H](C)NC(=O)[C@H](Cc4ccccc4)NC(=O)[C@H](Cc4ccc(O)cc4)NC(=O)[C@H](CSSC[C@H](NC(=O)[C@@H]4CCCN4C(=O)[C@H](CCCCN)NC(=O)[C@H](CC(N)=O)NC1=O)C(=O)N[C@@H](CCCCN)C(=O)N[C@@H]([C@@H](C)O)C(=O)N[C@@H](Cc1c[nH]cn1)C(=O)N[C@@H](CC(=O)O)C(=O)N[C@@H](CC(=O)O)C(=O)N3)NC(=O)[C@H](C)NC(=O)[C@H](CCC(N)=O)NC2=O [3A7] (H-HADPICNKPCKTHDDCSGAWFCQACYFANWRCGPYVG-NH2; disulfide 6-22, 10-25, 16-32) the koff (HTRA1^PD(SA)) was 2.8 ± 0.2 s-1 x10-4, the kon (HTRA1^PD(SA)) was 4.5 ± 0.3 M-1 s-1 x104 and the Kd (HTRA1^PD(SA)) was 6.2 ± 0.2 nM.
